Measurements from a melting point compilation (Tetko et al.; mined from patent text by program, amines drawn as free bases though some values may be those of a salt).
Residues, ends and D or L forms follow the SMILES beside them. *: point of attachment. Boc = CC(C)(C)OC(=O)*; Bn = c1ccc(C*)cc1

| melting point [°C] | SMILES |
| --- | --- |
| 104 to 107 | CC(NC(=O)C(Cc1ccc(OCc2ccccc2)cc1)NC(=O)OC(C)(C)C)C(=O)NCC(=O)O (stereo not drawn) (Boc-Tyr(Bn)-Ala-Gly-OH; configuration not given here) |
| 156 to 157 | O=C(Nc1ccc(CC2CCN(S(=O)(=O)N3CCCCC3)CC2)cc1)C(F)(F)F |
| 237 | O=C(O)CCOCCc1cccc(-c2nc(=O)c3ccccc3s2)n1 |
| 127 to 129 | CCOC(=O)C1(NS(=O)(=O)c2ccc3c(Cl)cnc(Cl)c3c2)CCCC1 |
| 248 to 249 | COc1cc(Oc2ccc(S(C)(=O)=O)nc2)cc2cc(C3=NCC(CC(=O)NC4CC4)S3)[nH]c12 (configuration not stated) |
| 127 to 128 | CCOC(=O)C1=C(COCC(N)=O)NC(C)=C(C(=O)OC)C1c1ccccc1Cl (configuration not stated) |
| 207 | NC(=O)OC[C@@H]1[C@H](NC(=O)/C(=N\OCC(=O)O)c2csc(N)n2)C(=O)N1S(=O)(=O)O |
| 192 to 194 | CC(C)(C)OC(=O)N(Cc1ccc(C(=O)O)cc1)c1ccc(C2CCCCC2)cc1 |
| 66 to 67 | COC(=O)C(C)(C)Sc1cccc(OC(=O)Nc2ccc(C(F)(F)F)cc2)c1 |
| 210 to 211 | Cc1nc2cc(OC3SCC(O)C(O)C3O)ccc2s1 (configuration not stated) |
| 110 | Cc1ccnc(N2CCN(CCc3c(C)n4c5c(cc(O)cc35)CCC4)CC2)c1 |
| 242 | N#Cc1cccnc1-n1cc(-c2ccc(Oc3ccccc3)cc2)c2c(N)ncnc21 |
| 119 to 121 | CN1CCC(c2c[nH]c3ccc(NC(=O)C4CCCC4)nc23)CC1 |
| 91 to 93 | N#CC(=NO)c1cccc(Br)c1 |
| 170 to 172 | CNC1=NS(=O)(=O)N=C1NCCSCc1cnc(CN(C)C)s1 |
| 153 to 156 | O=C(O)c1cccc(Oc2cccc(-c3nn(Cc4ccc(C(F)(F)P(=O)(O)O)c(F)c4)c(=Nc4ccc(Cl)c(Cl)c4)s3)c2)c1 |
| 200 to 201 | CC(C)(O)Cn1c(COc2ccccc2)nc2c(N)nc3ccccc3c21 |
| 238 to 241 | Cc1oc2cc(NS(C)(=O)=O)c(Oc3ccccc3)cc2c(=O)c1C(=O)O |
| 100 to 102 | CS(=O)(=O)c1ncc(OCc2ccccc2)cn1 |
| 203 to 205 | CC(C)NC(=O)c1c(NC(=O)c2cc(C(F)(F)F)nn2-c2ncccc2Cl)ccc2cn[nH]c12 |
| 92 to 94 | CCN(CC)CCNC(=O)c1cc(Cl)c(N)cc1OCCS(=O)CC (configuration not stated) |
| 173 to 175 | NC(=S)CCn1nc(-c2ccccc2)ccc1=O |
| 184 to 186 | CCCCNC(=O)NS(=O)(=O)c1c(Cl)cccc1-c1ccccc1 |
| 110 to 112 | CCOC(=O)/C=C/c1ccc(OCOC)c(C)c1OCc1ccc(Cl)cc1Cl |

| melting point [°C] | SMILES |
| --- | --- |
| 106 to 108 | CCNc1cccnc1N1CCN(C(=O)c2ccc(C(=O)N(CC)CCO)cc2)CC1 |
| 194 to 195 | COc1cc(OC)c(-c2cccs2)cc1/C=C/C(=O)c1ccc(S(=O)(=O)Nc2ccc(F)cn2)cc1 |
| 134 to 137 | COc1ccc(-c2ccc(OC)cc2[N+](=O)[O-])c([N+](=O)[O-])c1 |
| 227 to 228 | Cc1cc(-c2nc3cccnn3c2-c2ccnc(NC(=O)CCS(C)(=O)=O)c2)ccc1F |
| 79 to 81 | CCCCCCCCCCCCCCN(c1ccccc1)c1snnc1C(N)=O |
| > 300 | O=CNc1cccc2c1C(=O)c1c-2n[nH]c1-c1ccncc1 |
| 140 to 142 | CCN1CCN(Cc2nc3sc4c(c3c(=O)n2-c2ccccc2Cl)CCCC4)CC1 |
| 183 to 185 | COC(=O)c1coc(CN2C(=O)C3(COc4cc5c(cc43)OCO5)c3ccccc32)n1 (configuration not stated) |
| 112 to 115 | CCOC(=O)C1=C[C@@H](OC(CC)CC)[C@@H](NC(C)=O)[C@H](N=[N+]=[N-])[C@@H]1O |
| 199 to 201 | CN1CCN(c2cccc(-n3cnc4cc(C=O)ccc43)c2)CC1 |
| 108 to 111 | CCOc1nc(CCO)nc(N2CCc3ccccc3CC2)c1C#N |
| 113 to 115 | Clc1ccc2nc(Cl)nnc2c1 |
| 154 | Cc1cc(C)cc(N(CCCC(N)=O)Cc2ccc3nc(NCCCN4CCOCC4)n(Cc4cccc5cccnc45)c3c2)c1 |
| 84 to 85 | COc1ccc(O[C@@H]2CN(Cc3ccccc3)C[C@H]2O)cc1 (relative stereo) |
| 138 to 139 | CCn1c2cc(C=O)ccc2c2ccc3ccccc3c21 |
| 179 to 181 | CCOC(=O)c1cnn(-c2cc(Cl)cc(Cl)c2)c1S(C)(=O)=O |
| 111 to 113 | CCC(c1ccc(Cl)nc1)N(Cc1ccc(C(=O)O)cc1)S(=O)(=O)c1ccc(Cl)cc1 (configuration not stated) |
| 173 to 175 | Cc1nc2c(N)nc3c(c2n1CCOCCS(C)(=O)=O)CCCC3 |
| 161 | CCCOCCOC(=O)C1=C(C)NC(C)=C([N+](=O)[O-])C1c1cccc([N+](=O)[O-])c1 (configuration not stated) |
| 252 to 256 | COC(=O)/C=C/n1cnc2ccc(O)cc2c1=O |
| 215 to 225 | COc1cc2c(cc1OC)CN(CCc1ccc(NC(=O)c3cccc4c(=O)c5cccc(OC)c5[nH]c34)cc1)CC2 |
| 86 to 87.5 | COC(=O)c1cc2c(Br)csc2nc1C(=O)OC |
| 263 to 265 | COc1cc2c(=O)c(S(C)=O)cn(C)c2cc1Cl (configuration not stated) |
| 198 | CCCC1(CC(=O)OC)CCCc2c1[nH]c1cc(Br)ccc21 (configuration not stated) |

| melting point [°C] | SMILES |
| --- | --- |
| 158 | O=C(c1cccc(Br)c1)C(Br)C(Br)c1ccc(Br)cc1 (configuration not stated) |
| 111 to 114 | COc1cc(OCc2cccc([N+](=O)[O-])c2)ccc1C(C)=O |
| 126 to 127 | O=C1CCC(=O)C1C(=O)CCc1ccc(Cl)c(Cl)c1 |
| 138 to 139 | CC(C)N1CC(C(=O)c2ccc(Cc3ccc(F)cc3)s2)=C(O)C1=O |
| 56 to 58 | CC(Oc1cc(Cl)ccc1Cl)C(=O)OCc1ccccc1 (configuration not stated) |
| 74 | Cc1c(CCCCCCCCCC(=O)O)cccc1C(=O)c1ccc(Cl)cc1 |
| 211 | COc1cccc(OC)c1-c1cc(C(=O)NC2(C(=O)O)C3CC4CC(C3)CC2C4)nn1-c1ccc(CNC(C)=O)c2ccccc12 (configuration not stated) |
| 119 to 120 | CCCNC(=O)N1CC(Oc2ccc(C(F)(F)F)cc2)C1 |
| 174 to 176 | C=C1NC(Nc2ccccc2)=C(C(=O)OCC)C(NN)=C1C#N |
| > 300 | Nc1ccc2c3c1c(=O)c(C(=O)O)cn3CCC2 |
| 137 to 139 | O=C(c1ccc(Cl)cc1)c1cccc2c1CCC2C(=O)O (configuration not stated) |
| 205 to 210 | Nc1cc(N2CCN(C(=O)COc3cccc4ccccc34)CC2)nc(N)n1 |
| 126 | O=C(NC1(Cc2ccccc2)CCN(Cc2ccccc2)CC1)N1CCCC1 |
| 140 to 142 | CC(C)n1nc(-c2c(-c3ccccc3)nn3ccc(Oc4ccccn4)cc23)ccc1=O |
| 85 to 87 | Nc1c(F)cc(I)cc1Cl |
| 137 to 140 | CN1OCC(C(O)c2cc(C(C)(C)C)c(O)c(C(C)(C)C)c2)C1=O (configuration not stated) |
| 52 to 53 | O=C(OCOCOC(=O)c1c(F)cccc1F)c1c(F)cccc1F |
| 65 to 67 | Fc1cc2c(c(-c3c(Cl)cccc3Cl)c1)OC(CN1CCCC1)C2 (configuration not stated) |
| 97 to 98 | Clc1ncc(OCc2ccccc2)c2ccccc12 |
| 178 to 180 | COCc1cc(-c2ncc3[nH]c4cccc(Cc5ccccc5Cl)c4c3c2COC)no1 |
| 340 | CC(=O)Nc1ccc(OC2CCC3C4CCC5N(C)C(=O)CCC5(C)C4CCC23C)cc1 (configuration not stated) |
| 80 | O=C(C(Cl)Cl)N1CCOC1C(Cl)Cl (configuration not stated) |
| 125 to 126 | COc1cc2c(cc1OC)C(CCN1CCN(c3cccc(Cl)c3)CC1)OCCC2 (configuration not stated) |
| 61 to 63 | O=C(O)C(Cl)(Cl)CCCCCCCCCCCCCCBr |

| melting point [°C] | SMILES |
| --- | --- |
| 246 to 247 | COC(=O)c1cc(C(=O)NC2CCOCC2)c2cc(Cc3ccc(F)cc3)cnc2c1O |
| 96 to 98 | CCN(C(=O)c1cc(N(C)C)ccc1[Si](C)(C)C)C(OC)C(C)(C)C (configuration not stated) |
| 141 to 143 | Cc1ccc(-c2nnc(N3CCCCC3)nc2-c2ccc(C)cc2)cc1 |
| 140 to 146 | O=C(C=C(c1cc(Cl)cc(Cl)c1)C(F)(F)F)c1ccc(C(=O)NC2CCCO2)cc1 (configuration not stated) |
| 320 | COc1ccc2oc(N)c(C#N)c(=O)c2c1 |
| 72 | COCOc1cc(C(C)(C)C)ccc1C(=O)O |
| 212 to 213 | CNC(C(N)=O)c1cn(C2CCc3c(F)cc(F)cc3C2)c(=S)[nH]1 (configuration not stated) |
| 124 to 126 | Nc1ccc(OC2(c3ccccc3)CCN(Cc3ccccc3)CC2)cc1 |
| 178 to 179 | CC(C)(O)CNC(=O)CC1CN=C(c2cc3cc(Oc4ccc(S(C)(=O)=O)nc4)ccc3[nH]2)S1 (configuration not stated) |
| 230 | COC(=O)C1=C(C)Nc2c(c(=O)n(C)c(=O)n2C)C1c1cccc(Cl)c1 (configuration not stated) |
| 68 | CCCCCCCCCCCCCCCC1CN(C(=O)c2cc(OC)c(OC)c(OC)c2)CCN1C(=O)c1cc(OC)c(OC)c(OC)c1 (configuration not stated) |
| 220 to 221 | CC(C)c1n[nH]c2c(NCc3cccc(O)c3)ncnc12 |
| 140 to 141 | CS(=O)(=O)c1ccc(C(Br)C(=O)c2ccc(F)cc2)cc1 (configuration not stated) |
| 54 to 56 | CCCCc1ccc2c(n1)C(C(N)=S)CCC2 (configuration not stated) |
| 165 to 167 | CC(C)(C)c1ccc(-c2nc(COc3cccc4cc(NS(=O)(=O)C(F)(F)F)ccc34)co2)cc1 |
| 184 to 185 | CC(C)N(O)C(=O)C=Cc1ccc2ccccc2c1 |
| 90 | C[C@@](O)(CO)COc1ccc(Br)cc1 |
| 133 to 134 | CCc1cccc2c3c([nH]c12)C(CC)(CC)OCC3 |
| 275 to 279 | O=[N+]([O-])c1ccc2c(c1)S(=O)(=O)c1cc(F)ccc1-2 |
| 191 to 192 | O=C1NC(=S)SC1Cc1cccc2c1CCC(=O)N2Cc1ccc(Br)cc1 (configuration not stated) |
| 70 to 75 | COc1cc2c(cc1OC)CC(=S)N(CCCN(C)C1CCc3cc(OC)c(OC)cc3C1)CC2 (configuration not stated) |
| 65 | COc1ncnc(Cl)c1[N+](=O)[O-] |
| 85 to 86 | COC(=O)c1ccc2sc(C)c(Cl)c2c1 |

| SMILES | melting point [°C] |
| --- | --- |
| CCCCCCCCn1c(C)c(C(=O)c2ccccc2C(=O)O)c2ccccc21 | 121 to 123 |
| O=[N+]([O-])c1cc(CO)cc([N+](=O)[O-])c1 | 89 |
